# Data taken from article PMC6333288, “The crystal structure of the N-acetylglucosamine 2-epimerase from Nostoc sp. KVJ10 reveals the true dimer” (Acta Crystallographica. Section D, Structural Biology, 2019).
# What was measured:
# nAGE10 = target: T1, nAGE10 (Nostoc sp. KVJ10, UniProt A0A452CSU8); test: coupled AGE/NAL (AsNAL) reaction, Neu5Ac by thiobarbituric acid assay; format: biochemical; settings: HEPES pH 8.0, 25 °C, 1 h
# T1 construct: synthetic codon-optimised gene, C-terminal hexahistidine tag (no cleavage described), expressed in E. coli BL21 Star (DE3); dimer by gel filtration; residues Tyr3-Leu391 resolved, 157-164 missing
# T1 sequence (A0A452CSU8 entry or part of it): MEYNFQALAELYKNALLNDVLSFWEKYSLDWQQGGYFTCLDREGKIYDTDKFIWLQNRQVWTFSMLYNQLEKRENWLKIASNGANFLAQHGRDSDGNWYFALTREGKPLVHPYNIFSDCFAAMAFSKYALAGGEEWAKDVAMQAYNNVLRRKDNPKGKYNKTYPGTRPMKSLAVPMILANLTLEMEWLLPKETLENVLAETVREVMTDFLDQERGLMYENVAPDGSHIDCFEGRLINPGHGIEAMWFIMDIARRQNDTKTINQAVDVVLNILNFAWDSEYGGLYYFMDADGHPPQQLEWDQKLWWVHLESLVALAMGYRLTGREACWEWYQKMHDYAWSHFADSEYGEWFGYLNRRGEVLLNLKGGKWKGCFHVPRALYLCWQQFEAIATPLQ
# [1] = target: N-acetylglucosamine 2-epimerase from Nostoc sp. KVJ10 (Nostoc sp. KVJ10); test: SEC; gel-filtration chromatography on a Superdex 75 10/300 GL column; oligomerization state of purified nAGE10
molecule,measurement,setting,value
CC(=O)N[C@H]1C(O)O[C@H](CO)[C@@H](O)[C@@H]1O (stereo partly drawn) [GlcNAc],"coupled AGE/NAL (AsNAL) reaction, Neu5Ac by thiobarbituric acid assay","nAGE10; 15 mM GlcNAc, 10 mM ATP, 15 mM pyruvate",The results show that the synthesis of Neu5Ac from GlcNAc is possible
Nc1ncnc2c1ncn2[C@@H]1O[C@H](COP(=O)(O)OP(=O)(O)OP(=O)(O)O)[C@@H](O)[C@H]1O [ATP],"coupled AGE/NAL (AsNAL) reaction, Neu5Ac by thiobarbituric acid assay","nAGE10; 10 mM ATP present versus absent, GlcNAc 15 mM, pyruvate 15 mM, allosteric activator","In the absence of ATP, only a fraction of Neu5Ac could be synthetized from GlcNAc"
N-acetylglucosamine 2-epimerase from Nostoc sp. KVJ10 (enzyme),stoichiometry N,[1],2
